Results: US12419862B2, “Use of a cathepsin s inhibitor against the formation of anti-drug antibodies” (Hoffmann-La Roche Inc., priority 2018, dated 2025)
Entries after “also recorded” stand apart in the source; their conditions may differ.

Key:
[1] = test system: CEA-specific IgG response; assay: ADA against CEA-IL2v in hIgG1 Tg mice, ELISA (Example 1, 28 days); assay type: in vivo, C57BL/6-Tg (hIgG1,k,l) mice; details: 40 mg/kg/day via food admix from one week before first immunization until day 28, vs vehicle
From the text: For immunogenicity assessment, we used the previously described human IgG1 immune-tolerant mouse model (Bessa, Boeckle et al. Pharm Res 2015, 32(7): 2344-2359). Since this human IgG transgenic mouse is tolerant to a broad range of human IgG1 antibodies (Abs), ADA responses elicited in this system are taken to reflect intrinsic immunogenic attributes of the eliciting Ab compounds also expected to cause ADA in humans.
15-week-old mice C57BL/6 wild type and C57BL/6-Tg (hIgG1,k,l) were purchased from Taconic (Denmark) and housed at the animal facilities under a 12 hour (h) light 12 h dark cycle with cycles of air ventilation and free access to water and food. 7×10 μg of CEA-112v or 7×10 μg of Humira (Adalimumab, Abbvie Germany GmbH) were injected respectively at day 0, 4, 7, 11, 14, 18 and 21 subcutaneously in the right flank or the left flank alternatively. The dosage of the cathepsin S inhibitor consumption was 40 mg/kg/day. […]
(§1) Nunc Maxisorp flat-bottom 96 well ELISA plates were coated with 100 μl per well of Humira or CEA-PGLALA (3.42 mg/ml, ID 8037) respectively at 5 μg/mL in NaHCO3100 mM buffer overnight at +4° C. […] 100 μl of substrate P-nitrophenyl phosphate ready to use (Life Technologies Cat no 002212) were added per well and after 10 min incubation at room temperature, the OD at 405 nm was read as an end-point measurement with a Versamax ELISA reader.

[2] = test system: CEA-specific IgG response; assay: ADA against CEA-IL2v in wild-type mice over time, ELISA (Example 4, 63 days); assay type: in vivo, C57BL/6 wild type mice; details: 40 mg/kg/day via food admix, primary and memory response, samples to day 63, vs vehicle
Protocol: 15-week-old mice C57BL/6-Tg (hIgG1,k,l) and C57BL/6 wild type mixed gender were purchased from Taconic (Denmark) and housed at the animal facilities in room with air-conditioned under a 12 hours light/dark cycle in macrolon boxes with enriched environment and free access to water and food. 7×10 μg of CEA-IL2v (Batch no GLI0144-01) were injected at day 0, 4, 7, 11, 14, 18 and 21 for the primary response, and at day 49, 53, 56 and 60 for the memory response. The CEA-112v injections were done subcutaneously in the right flank or the left flank alternatively. The dosage of (2S,4R)-4-[4-(1-methyl-1H-pyrazol-4-yl)-2-trifluoromethyl-benzenesulfonyl]-1-(1-trifluoromethyl-cyclopropanecarbonyl)-pyrrolidine-2-carboxylic acid (1-cyano-cyclopropyl)-amide consumption was 40 mg/kg/day. […]
as §1, with “CEA-PGLALA” for “CEA-PGLALA (3.42 mg/ml, ID 8037)”, “Technologies,” for “Technologies”

Cn1cc(-c2ccc(S(=O)(=O)[C@@H]3C[C@@H](C(=O)NC4(C#N)CC4)N(C(=O)C4(C(F)(F)F)CC4)C3)c(C(F)(F)F)c2)cn1 [cathepsin S inhibitor, (2S,4R)-4-[4-(1-methyl-1H-pyrazol-4-yl)-2-trifluoromethyl-benzenesulfonyl]-1-(1-trifluoromethyl-cyclopropanecarbonyl)-pyrrolidine-2-carboxylic acid (1-cyano-cyclopropyl)-amide]
ADA to CEA-IL2v (CEA-specific IgG) [1]: prevents ADA to CEA-IL2v in hIgG transgenic mice; also recorded: complete abrogation of ADA to CEA-IL2v
ADA to CEA-IL2v (CEA-specific IgG) over time [2]: reduces its levels in wild-type mice
